Where two headings read alike, the source gives them in different places. Square brackets hold non-standard residues; d marks the D form. Peptide text beside a SMILES is read from it. * marks the point of attachment. X2 = CO[C@@H]1[C@H](OC(=O)*)CC[C@]2(CO2)[C@H]1[C@@]1(C)O[C@@H]1CC=C(C)C; X3 = CO[C@@H]1[C@H](OC(=O)*)CC[C@]2(CO2)[C@H]1[C@@]1(C)O[C@@H]1CCC(C)C; Sar = CNCC(=O)O Where only a bound is given, the exact number is not on record here.

In assay [1] the test system is human umbilical vein endothelial cells (HUVEC). The assay can be described thus: human endothelial cell growth assay (Huvec assay). It is filed as cell-based. The method, then:
For the human endothelial cell growth assay, human umbilical vein endothelial cells (HUVEC) were maintained in Clonetics endothelial growth medium (EGM) in a 37° C. humidified incubator. Cells were detached with trypsin and pelleted by centrifugation at 300×g for 5 minutes at room temperature. HUVEC were added to 96-well plates at 5,000 cells/well. After incubating for 6 hours, the medium was replaced with 0.2 ml fresh EGM supplemented with 0.5 nM bFGF and the desired concentration of test angiogenesis inhibitor compound. Test angiogenesis inhibitor compounds were initially dissolved in ethanol at stock concentrations of either 10 mM or 0.1 mM, and subsequently diluted in EGM to obtain concentrations from […] to 10 μM. After 48 hours at 37° C., the medium was replaced with fresh bFGF-supplemented EGM and test angiogenesis inhibitor compound. Following incubation for an additional 48 hours at 37° C. MTT (3-[4,5-dimethylthiazol-2-yl]-2,5-diphenyl-tetrazolium bromide) was added to 1 mg/ml. After 2-4 hours at 37° C. the medium was replaced with 0.1 ml/well isopropanol. The plates were placed on a shaker for 15 minutes at room temperature and analyzed in a Labsystems Multiskan plate spectrophotometer at an optical density of 570 nm.

The target in another assay is T1, MetAP2 (Homo sapiens, UniProt P50579).
T1 construct: made in house; host or cells: insect cells
The assay can be described thus: MetAP2 enzyme assay. The assay is classed as biochemical. The method, then: Finally, the ability of the angiogenesis inhibitor compounds of the invention to modulate the activity of MetAP2 may be tested as follows.. Recombinant human MetAP2 may be expressed and purified from insect cells as described in Li and Chang, (1996) Biochem. Biophys. Res. Commun. 227:152-159. Various amounts of angiogenesis inhibitor compound is then added to buffer H (10 mM Hepes, pH 7.35, 100 mM KCl, 10% glycerol, and […]) containing lnM purified recombinant human MetAP2 and incubated at 37° C. for 30 minutes. To start the enzymatic reaction a peptide containing a methionine residue, e.g., Met-Gly-Met, is added to the reaction mixture (to a concentration of 1 mM). Released methionine is subsequently quantified at different time points (e.g., at 0, 2, 3, and 5 minutes) using the method of Zou et al. (1995) Mol. Gen Genetics 246:247-253).
The angiogenesis inhibitor compounds of the invention were tested for their ability to modulate human endothelial cell growth and for their ability to modulate the activity of MetAP2. The MetAP2 enzyme assay was performed essentially as described in Turk, B. et al. (1999) Chem. & Bio. 6: 823-833, the entire contents of which are incorporated herein by reference. […]

The subject of assay [2] is bovine aortic endothelial cell. Put plainly: bovine aortic endothelial cell growth assay (Baec assay). It is filed as cell-based. On the procedure: The angiogenesis inhibitor compounds of the invention were tested for their ability to modulate human endothelial cell growth and for their ability to modulate the activity of MetAP2. The MetAP2 enzyme assay was performed essentially as described in Turk, B. et al. (1999) Chem. & Bio. 6: 823-833, the entire contents of which are incorporated herein by reference. The bovine aortic endothelial cell growth assay (Baec assay) was performed essentially as described in Turk, B. et al. (supra), the entire contents of which are incorporated herein by reference.

Setting [3] is: Homo sapiens, HUVEC, read-out: IC50 (pM), Huvec Assay.
The mark [4] stands for this setting: Bos taurus, BAEC, read-out: IC50 (pM), Baec Assay.

T1 sequence (P50579 whole entry): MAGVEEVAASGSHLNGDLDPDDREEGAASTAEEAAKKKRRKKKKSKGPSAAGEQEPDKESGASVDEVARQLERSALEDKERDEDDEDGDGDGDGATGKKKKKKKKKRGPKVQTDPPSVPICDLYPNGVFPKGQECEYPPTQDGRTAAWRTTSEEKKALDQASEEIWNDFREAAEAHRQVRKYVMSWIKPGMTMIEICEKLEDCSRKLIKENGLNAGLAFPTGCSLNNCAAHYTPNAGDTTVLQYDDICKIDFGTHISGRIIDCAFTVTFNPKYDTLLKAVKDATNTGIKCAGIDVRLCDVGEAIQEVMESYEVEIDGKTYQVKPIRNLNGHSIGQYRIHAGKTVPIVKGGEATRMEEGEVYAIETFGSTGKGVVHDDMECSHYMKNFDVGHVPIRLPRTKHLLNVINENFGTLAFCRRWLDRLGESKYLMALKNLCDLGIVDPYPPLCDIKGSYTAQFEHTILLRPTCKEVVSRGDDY

With `CO[C@@H]1[C@H](OC(=O)NCC(=O)N[C@@H](CCCNC(=N)N)C(=O)NCC(=O)N[C@@H](CC(=O)O)C(N)=O)CC[C@]2(CO2)[C@H]1[C@@]1(C)O[C@@H]1CCC(C)C` [Example 15] (X3-GRGD-NH2), in assay [1] (read-out: IC50, Huvec Assay), the IC50 (commonly the point on the concentration scale where inhibition reaches its midpoint) is greater than 1e+07 pM. As to `CO[C@@H]1[C@H](OC(=O)N[C@@H](C(=O)O)C(C)C)CC[C@]2(CO2)[C@H]1[C@@]1(C)O[C@@H]1CC=C(C)C` [Example 24, 2-{(3R, 4S, 5S, 6R)-5-Methoxy-4-[(2R, 3R)-2-methyl-3-(3-methyl-but-2-enyl)-oxiranyl]-1-oxa-spiro[2.5]oct-6-yloxycarbonylamino}-3-methyl-butyric acid], the IC50 in assay [1] (setting [3]) stood at 5440 pM.

For the compound `CO[C@@H]1[C@H](OC(=O)NCC(=O)N[C@@H](CCCNC(=N)N)C(=O)NC[C@@H](O)N[C@@H](CC(=O)O)C(=O)N[C@@H](CO)C(=O)N2CCCC2C(N)=O)CC[C@]2(CO2)[C@H]1[C@@]1(C)O[C@@H]1CC=C(C)C` (some centres unmarked) [Example 13], the IC50 on MetAP2 is 2.9 nM; in assay [1] (read-out: IC50, Huvec Assay), greater than 1e+07 pM. On to `CO[C@@H]1[C@H](OC(=O)NCC(=O)N2CCC[C@H]2C(=O)N[C@@H](CC(C)C)C(=O)NCC(=O)O)CC[C@]2(CO2)[C@H]1[C@@]1(C)O[C@@H]1CC=C(C)C` [Example 19, N-Carbamoyl (ID#27) (3R, 4S, 5S, 6R) 5-methoxy-4-[(2R,3R)2-methyl-3-(3-methyl-but-2-enyl)-oxiranyl]-1-oxa-spiro [2.5]oct-6-yl ester] (X2-GPLG-OH), for which the IC50 was greater than 100000 pM in assay [2] (read-out: IC50, Baec Assay) and greater than 100000 pM in assay [1] (read-out: IC50, Huvec Assay). As to `COC(=O)[C@H](NC(=O)O[C@@H]1CC[C@]2(CO2)[C@@H]([C@@]2(C)O[C@@H]2CC=C(C)C)[C@@H]1OC)c1ccccc1` [Example 4, {(3R, 4S, 5S, 6R)-5-Methoxy-4-[(2R, 3R )-2-methyl-3-(3-methyl-but-2-enyl)-oxiranyl]-1-oxa-spiro[2.5]oct-6-yloxycarbonylamino}-phenyl-acetic acid methyl ester], the IC50 was found to be 35 pM in assay [2] (setting [4]) and 36 pM in assay [1] (setting [3]). For the compound `CCC(C)C(NC(=O)O[C@@H]1CC[C@]2(CO2)[C@@H]([C@@]2(C)O[C@@H]2CC=C(C)C)[C@@H]1OC)C(=O)OC` (some centres unmarked) [Example 10], the IC50 in assay [2] (setting [4]) was determined as 179 pM.

On to `COC(=O)[C@H](NC(=O)O[C@@H]1CC[C@]2(CO2)[C@@H]([C@@]2(C)O[C@@H]2CC=C(C)C)[C@@H]1OC)C1CCCCC1` [Example 9, Cyclohexyl-2-{(3R, 4S, 5S, 6R )-5-Methoxy-4-[(2R, 3R)-2-methyl-3-(3-methyl-but-2-enyl)-oxiranyl]-1-oxa-spiro[2.5]oct-6-yloxycarbonylamino}-acetic acid methyl ester], for which the IC50 in assay [2] (setting [4]) worked out at 165 pM. Turning to `CO[C@@H]1[C@H](OC(=O)N[C@@H](C(N)=O)C(C)C)CC[C@]2(CO2)[C@H]1[C@@]1(C)O[C@@H]1CCC(C)C` [Example 6, (1-Carbamoyl-2-methyl-propyl)-carbamic acid-(3R, 4S, 5S, 6R )-5-methoxy-4-[(2R, 3R)-2-methyl-3-(3-methyl-butyl)-oxiranyl]-1-oxa-spiro[2.5]oct-6-yl ester], the IC50 in assay [2] (setting [4]) is 220 pM.

For `COC(=O)[C@H](NC(=O)O[C@@H]1CC[C@]2(CO2)[C@@H]([C@@]2(C)O[C@@H]2CC=C(C)C)[C@@H]1OC)C(C)(C)C` [Example 8, 2-{(3R, 4S, 5S, 6R )-5-Methoxy-4-[(2R, 3R)-2-methyl-3-(3-methyl-but-2-enyl)-oxiranyl]-1-oxa-spiro[2.5]oct-6-yloxycarbonylamino}-3,3-dimethyl-butyric acid methyl ester], the IC50 in assay [2] (setting [4]) came out at 313 pM. On to `CO[C@@H]1[C@H](OC(=O)NCC(=O)N2CCC[C@H]2C(=O)N[C@@H](CC(C)C)C(=O)N(C)CC(=O)O)CC[C@]2(CO2)[C@H]1[C@@]1(C)O[C@@H]1CC=C(C)C` [Example 18, N-Carbamoyl (ID#26) (3R, 4S, 5S, 6R) 5-methoxy-4-[(2R,3R)2-methyl-3-(3methyl-but-2-enyl)-oxiranyl]-1-oxa-spiro[2.5]oct-6-yl ester] (X2-GPL[Sar]-OH), for which, in assay [1] (read-out: IC50, Huvec Assay), the IC50 is greater than 100000 pM.

Take `CO[C@@H]1[C@H](OC(=O)N[C@@H](C(=O)N[C@@H](CO)C(N)=O)C(C)C)CC[C@]2(CO2)[C@H]1[C@@]1(C)O[C@@H]1CC=C(C)C` [Example 11]: the IC50 in assay [2] (Bos taurus, BAEC, read-out: IC50, Baec Assay) was greater than 100000 pM.

Source of the values: patent US20050059585A1, “Methionine aminopeptidase-2 inhibitors and methods of use thereof” (Praecis Pharmaceuticals Inc., priority 2000, published 2005).
